What was measured:
Assay in all cases: KINOMEscan kinase binding assay
[1] = biological target: T1, 384 kinases from the human genome (Homo sapiens, UniProt Q9P1W9); details: kinase PIM2 (Entrez PIM2)
T1 construct: purchased Eurofin/DiscoverX
Procedure, shortened: (§1)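 A panel of 384 human kinases was profiled by KINOMEscan binding in the presence of 10 µM compound. Kinase–ligand binding was given as percent of DMSO control, averaged from duplicates in a single run, with an S(10) selectivity score.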

[2] = biological target: T2, 384 kinases from the human genome (Homo sapiens, UniProt P50750); details: kinase CDK9 (Entrez CDK9)
T2 construct: purchased Eurofin/DiscoverX
Procedure, shortened: as §1

[3] = biological target: T3, 384 kinases from the human genome (Homo sapiens, UniProt Q9UPE1); details: kinase SRPK3 (Entrez SRPK3)
T3 construct: purchased Eurofin/DiscoverX
Procedure, shortened: as §1

[4] = biological target: T4, 384 kinases from the human genome (Homo sapiens, UniProt P21127); details: kinase CDC2L1 (Entrez CDK11B)
T4 construct: purchased Eurofin/DiscoverX
Procedure, shortened: as §1

[5] = biological target: T5, 384 kinases from the human genome (Homo sapiens, UniProt P16591); details: kinase FER (Entrez FER)
T5 construct: purchased Eurofin/DiscoverX
Procedure, shortened: as §1

[6] = biological target: T6, 384 kinases from the human genome (Homo sapiens, UniProt Q9Y2I7); details: kinase PIKFYVE (Entrez PIKFYVE)
T6 construct: purchased Eurofin/DiscoverX
Procedure, shortened: as §1

[7] = biological target: T7, 384 kinases from the human genome (Homo sapiens, UniProt Q6DT37); details: kinase DMPK2 (Entrez CDC42BPG)
T7 construct: purchased Eurofin/DiscoverX
Procedure, shortened: as §1

[8] = biological target: T8, 384 kinases from the human genome (Homo sapiens, UniProt Q15303); details: kinase ERBB4 (Entrez ERBB4)
T8 construct: purchased Eurofin/DiscoverX
Procedure, shortened: as §1

[9] = biological target: T9, 384 kinases from the human genome (Homo sapiens, UniProt P42685); details: kinase FRK (Entrez FRK)
T9 construct: purchased Eurofin/DiscoverX
Procedure, shortened: as §1

[10] = biological target: T10, 384 kinases from the human genome (Homo sapiens, UniProt P07333)
T10 construct: purchased Eurofin/DiscoverX
Procedure, shortened: as §1

[11] = biological target: T11, 384 kinases from the human genome (Homo sapiens, UniProt P21709); details: kinase EPHA1 (Entrez EPHA1)
T11 construct: purchased Eurofin/DiscoverX
Procedure, shortened: as §1

[12] = biological target: T12, 384 kinases from the human genome (Homo sapiens, UniProt O15075); details: kinase DCAMKL1 (Entrez DCLK1)
T12 construct: purchased Eurofin/DiscoverX
Procedure, shortened: as §1

[13] = biological target: T13, 384 kinases from the human genome (Homo sapiens, UniProt P37023); details: kinase ACVRL1 (Entrez ACVRL1)
T13 construct: purchased Eurofin/DiscoverX
Procedure, shortened: as §1

[14] = biological target: T14, 384 kinases from the human genome (Homo sapiens, UniProt Q05655); details: kinase PRKCD (Entrez PRKCD)
T14 construct: purchased Eurofin/DiscoverX
Procedure, shortened: as §1

[15] = biological target: T15, 384 kinases from the human genome (Homo sapiens, UniProt P06213); details: kinase INSR (Entrez INSR)
T15 construct: purchased Eurofin/DiscoverX
Procedure, shortened: as §1

[16] = biological target: T16, 384 kinases from the human genome (Homo sapiens, UniProt P29322); details: kinase EPHA8 (Entrez EPHA8)
T16 construct: purchased Eurofin/DiscoverX
Procedure, shortened: as §1

[17] = biological target: T17, 384 kinases from the human genome (Homo sapiens, UniProt Q02750); details: kinase MEK1 (Entrez MAP2K1)
T17 construct: purchased Eurofin/DiscoverX
Procedure, shortened: as §1

[18] = biological target: T18, 384 kinases from the human genome (Homo sapiens, UniProt O75116); details: kinase ROCK2 (Entrez ROCK2)
T18 construct: purchased Eurofin/DiscoverX
Procedure, shortened: as §1

[19] = biological target: T19, 384 kinases from the human genome (Homo sapiens, UniProt Q9HAZ1); details: kinase CLK4 (Entrez CLK4)
T19 construct: purchased Eurofin/DiscoverX
Procedure, shortened: as §1

[20] = biological target: T20, 384 kinases from the human genome (Homo sapiens, UniProt P53779); details: kinase JNK3 (Entrez MAPK10)
T20 construct: purchased Eurofin/DiscoverX
Procedure, shortened: as §1

[21] = biological target: T21, 384 kinases from the human genome (Homo sapiens, UniProt Q9P0L2); details: kinase MARK1 (Entrez MARK1)
T21 construct: purchased Eurofin/DiscoverX
Procedure, shortened: as §1

[22] = biological target: T22, 384 kinases from the human genome (Homo sapiens, UniProt Q92918); details: kinase HPK1 (Entrez MAP4K1)
T22 construct: purchased Eurofin/DiscoverX
Procedure, shortened: as §1

[23] = biological target: T23, 384 kinases from the human genome (Homo sapiens, UniProt Q9UKI8); details: kinase TLK1 (Entrez TLK1)
T23 construct: purchased Eurofin/DiscoverX
Procedure, shortened: as §1

[24] = biological target: T24, 384 kinases from the human genome (Homo sapiens, UniProt Q96NX5); details: kinase CAMK1G (Entrez CAMK1G)
T24 construct: purchased Eurofin/DiscoverX
Procedure, shortened: as §1

[25] = biological target: T25, 384 kinases from the human genome (Homo sapiens, UniProt Q9C098); details: kinase DCAMKL3 (Entrez DCLK3)
T25 construct: purchased Eurofin/DiscoverX
Procedure, shortened: as §1

[26] = biological target: T26, 384 kinases from the human genome (Homo sapiens, UniProt P14616); details: kinase INSRR (Entrez INSRR)
T26 construct: purchased Eurofin/DiscoverX
Procedure, shortened: as §1

T10 sequence (P07333 20-972): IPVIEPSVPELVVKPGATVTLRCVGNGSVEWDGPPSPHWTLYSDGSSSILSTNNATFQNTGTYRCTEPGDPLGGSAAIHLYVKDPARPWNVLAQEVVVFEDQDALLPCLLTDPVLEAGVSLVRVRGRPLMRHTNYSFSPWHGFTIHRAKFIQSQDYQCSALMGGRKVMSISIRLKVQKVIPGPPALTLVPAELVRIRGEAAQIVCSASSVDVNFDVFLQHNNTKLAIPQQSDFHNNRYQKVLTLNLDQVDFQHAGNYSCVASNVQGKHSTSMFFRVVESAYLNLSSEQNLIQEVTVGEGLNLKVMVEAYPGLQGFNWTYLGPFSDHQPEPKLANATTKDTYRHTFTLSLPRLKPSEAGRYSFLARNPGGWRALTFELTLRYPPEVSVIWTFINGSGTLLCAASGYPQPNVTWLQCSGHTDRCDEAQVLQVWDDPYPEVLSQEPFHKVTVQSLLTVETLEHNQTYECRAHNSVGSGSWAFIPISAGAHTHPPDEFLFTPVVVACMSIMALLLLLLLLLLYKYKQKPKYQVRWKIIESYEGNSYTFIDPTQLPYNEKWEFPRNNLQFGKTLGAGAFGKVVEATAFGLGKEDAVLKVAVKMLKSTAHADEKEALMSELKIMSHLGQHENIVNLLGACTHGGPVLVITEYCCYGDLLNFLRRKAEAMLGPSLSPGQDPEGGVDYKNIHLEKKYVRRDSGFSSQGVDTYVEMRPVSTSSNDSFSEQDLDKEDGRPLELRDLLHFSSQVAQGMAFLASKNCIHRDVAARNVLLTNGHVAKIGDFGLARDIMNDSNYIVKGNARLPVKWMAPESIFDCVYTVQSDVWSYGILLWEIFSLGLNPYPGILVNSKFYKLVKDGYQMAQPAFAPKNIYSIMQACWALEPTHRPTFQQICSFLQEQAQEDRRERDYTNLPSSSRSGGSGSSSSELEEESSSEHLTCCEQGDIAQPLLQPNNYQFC
T24 sequence (Q96NX5 whole entry): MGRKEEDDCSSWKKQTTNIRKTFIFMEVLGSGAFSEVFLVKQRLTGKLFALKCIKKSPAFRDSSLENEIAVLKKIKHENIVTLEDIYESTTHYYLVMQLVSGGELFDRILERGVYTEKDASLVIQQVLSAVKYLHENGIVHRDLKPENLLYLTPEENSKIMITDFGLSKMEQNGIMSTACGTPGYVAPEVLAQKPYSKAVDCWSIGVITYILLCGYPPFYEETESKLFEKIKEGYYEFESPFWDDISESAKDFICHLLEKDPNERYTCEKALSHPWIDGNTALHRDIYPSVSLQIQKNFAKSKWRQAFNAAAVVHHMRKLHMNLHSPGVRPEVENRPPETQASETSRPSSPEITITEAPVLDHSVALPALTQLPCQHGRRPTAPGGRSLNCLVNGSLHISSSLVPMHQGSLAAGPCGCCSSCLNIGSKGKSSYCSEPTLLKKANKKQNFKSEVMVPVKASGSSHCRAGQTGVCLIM
T18 sequence (O75116 whole entry): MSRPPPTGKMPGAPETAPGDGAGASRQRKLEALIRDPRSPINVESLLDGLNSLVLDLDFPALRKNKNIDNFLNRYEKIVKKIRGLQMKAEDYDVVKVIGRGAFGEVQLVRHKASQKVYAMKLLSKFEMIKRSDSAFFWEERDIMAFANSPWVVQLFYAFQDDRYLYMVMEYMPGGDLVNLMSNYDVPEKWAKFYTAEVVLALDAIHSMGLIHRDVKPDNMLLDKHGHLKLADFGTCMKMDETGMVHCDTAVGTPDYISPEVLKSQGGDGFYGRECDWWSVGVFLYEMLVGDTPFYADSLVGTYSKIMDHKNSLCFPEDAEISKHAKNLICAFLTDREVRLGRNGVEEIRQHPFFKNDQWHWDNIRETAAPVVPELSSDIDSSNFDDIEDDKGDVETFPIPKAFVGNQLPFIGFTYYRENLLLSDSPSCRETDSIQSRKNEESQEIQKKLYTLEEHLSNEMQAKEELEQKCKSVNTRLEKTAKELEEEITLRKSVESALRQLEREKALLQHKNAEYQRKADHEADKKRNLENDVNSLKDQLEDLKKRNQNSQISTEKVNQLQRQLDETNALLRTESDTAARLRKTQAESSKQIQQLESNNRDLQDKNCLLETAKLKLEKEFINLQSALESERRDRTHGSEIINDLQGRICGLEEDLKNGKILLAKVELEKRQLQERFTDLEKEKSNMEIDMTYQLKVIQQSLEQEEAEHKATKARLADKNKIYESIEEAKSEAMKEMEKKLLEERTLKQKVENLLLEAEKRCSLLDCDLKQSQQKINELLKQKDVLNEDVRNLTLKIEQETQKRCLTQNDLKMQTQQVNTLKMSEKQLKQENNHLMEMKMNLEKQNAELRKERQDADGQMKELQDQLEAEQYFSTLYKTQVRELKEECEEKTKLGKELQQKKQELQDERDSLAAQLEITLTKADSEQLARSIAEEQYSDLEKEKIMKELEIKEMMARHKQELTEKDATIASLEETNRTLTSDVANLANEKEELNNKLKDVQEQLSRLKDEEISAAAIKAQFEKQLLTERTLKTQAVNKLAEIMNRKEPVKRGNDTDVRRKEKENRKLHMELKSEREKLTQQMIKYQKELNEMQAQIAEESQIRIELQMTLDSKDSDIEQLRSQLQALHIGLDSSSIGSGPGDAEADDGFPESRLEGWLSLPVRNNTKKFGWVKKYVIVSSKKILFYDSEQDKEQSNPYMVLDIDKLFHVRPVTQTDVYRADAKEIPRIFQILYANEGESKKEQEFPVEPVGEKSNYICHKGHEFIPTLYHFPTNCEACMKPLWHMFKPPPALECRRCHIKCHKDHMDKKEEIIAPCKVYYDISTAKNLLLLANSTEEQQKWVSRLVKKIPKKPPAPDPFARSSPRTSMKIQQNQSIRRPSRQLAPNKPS
T21 sequence (Q9P0L2 whole entry): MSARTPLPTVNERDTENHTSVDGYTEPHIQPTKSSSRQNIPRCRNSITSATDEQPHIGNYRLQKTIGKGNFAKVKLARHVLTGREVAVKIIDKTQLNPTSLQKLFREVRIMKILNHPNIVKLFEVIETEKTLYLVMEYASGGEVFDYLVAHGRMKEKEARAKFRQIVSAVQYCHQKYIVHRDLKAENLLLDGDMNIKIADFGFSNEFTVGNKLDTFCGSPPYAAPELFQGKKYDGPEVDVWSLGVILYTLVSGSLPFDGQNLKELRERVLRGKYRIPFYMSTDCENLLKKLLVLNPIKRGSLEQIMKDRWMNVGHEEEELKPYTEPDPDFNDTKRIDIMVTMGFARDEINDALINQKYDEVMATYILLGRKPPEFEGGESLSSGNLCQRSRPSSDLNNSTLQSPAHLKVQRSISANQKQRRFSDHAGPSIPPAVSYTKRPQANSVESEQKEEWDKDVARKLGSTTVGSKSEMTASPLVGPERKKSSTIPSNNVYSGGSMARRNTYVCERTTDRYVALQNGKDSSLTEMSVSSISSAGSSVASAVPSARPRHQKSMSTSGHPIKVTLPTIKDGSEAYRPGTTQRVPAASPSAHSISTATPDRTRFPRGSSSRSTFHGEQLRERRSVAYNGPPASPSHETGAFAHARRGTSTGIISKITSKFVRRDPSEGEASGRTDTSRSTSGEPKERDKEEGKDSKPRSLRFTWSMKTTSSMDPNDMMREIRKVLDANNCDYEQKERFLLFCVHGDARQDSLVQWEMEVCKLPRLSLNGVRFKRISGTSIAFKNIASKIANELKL
T9 sequence (P42685 whole entry): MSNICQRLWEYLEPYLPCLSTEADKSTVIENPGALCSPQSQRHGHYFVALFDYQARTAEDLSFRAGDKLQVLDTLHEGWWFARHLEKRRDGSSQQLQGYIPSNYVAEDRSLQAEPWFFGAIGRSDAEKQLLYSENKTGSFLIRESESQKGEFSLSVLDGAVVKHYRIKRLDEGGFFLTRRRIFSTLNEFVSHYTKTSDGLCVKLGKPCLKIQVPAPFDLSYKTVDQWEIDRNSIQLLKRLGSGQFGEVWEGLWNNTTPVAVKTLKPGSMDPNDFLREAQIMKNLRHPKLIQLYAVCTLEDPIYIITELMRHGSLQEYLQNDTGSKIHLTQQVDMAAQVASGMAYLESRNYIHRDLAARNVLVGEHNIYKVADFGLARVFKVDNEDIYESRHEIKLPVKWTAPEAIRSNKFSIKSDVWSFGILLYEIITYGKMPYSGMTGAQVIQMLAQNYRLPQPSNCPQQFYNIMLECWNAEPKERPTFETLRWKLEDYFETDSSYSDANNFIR
T17 sequence (Q02750 whole entry): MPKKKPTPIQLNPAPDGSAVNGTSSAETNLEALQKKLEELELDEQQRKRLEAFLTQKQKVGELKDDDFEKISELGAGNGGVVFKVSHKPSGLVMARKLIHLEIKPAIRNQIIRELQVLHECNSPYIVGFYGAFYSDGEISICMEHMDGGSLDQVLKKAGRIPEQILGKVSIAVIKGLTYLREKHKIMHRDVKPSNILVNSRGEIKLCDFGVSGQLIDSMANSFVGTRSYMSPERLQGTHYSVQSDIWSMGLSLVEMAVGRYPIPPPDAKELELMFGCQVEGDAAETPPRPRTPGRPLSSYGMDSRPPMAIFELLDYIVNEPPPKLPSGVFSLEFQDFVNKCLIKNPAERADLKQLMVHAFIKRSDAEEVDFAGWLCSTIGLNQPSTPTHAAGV
T3 sequence (Q9UPE1 whole entry): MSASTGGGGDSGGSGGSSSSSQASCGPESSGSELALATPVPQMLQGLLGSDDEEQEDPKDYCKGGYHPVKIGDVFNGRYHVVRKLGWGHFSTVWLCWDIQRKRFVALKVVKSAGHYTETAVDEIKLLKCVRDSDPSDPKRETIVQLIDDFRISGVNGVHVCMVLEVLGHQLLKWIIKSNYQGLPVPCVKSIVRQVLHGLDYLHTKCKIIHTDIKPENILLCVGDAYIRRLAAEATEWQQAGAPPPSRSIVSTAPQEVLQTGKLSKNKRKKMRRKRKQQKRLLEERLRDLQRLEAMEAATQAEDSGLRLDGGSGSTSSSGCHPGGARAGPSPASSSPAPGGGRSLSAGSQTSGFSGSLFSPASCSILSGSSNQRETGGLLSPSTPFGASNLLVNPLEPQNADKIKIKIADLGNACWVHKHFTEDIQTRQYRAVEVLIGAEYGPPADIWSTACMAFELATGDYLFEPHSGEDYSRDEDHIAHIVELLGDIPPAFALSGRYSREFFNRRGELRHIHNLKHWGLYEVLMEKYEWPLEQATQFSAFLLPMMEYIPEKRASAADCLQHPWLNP

## CC(C)C(=O)N1CCN(c2ccc(NC(=O)c3cc4ccccc4o3)cc2Cl)CC1 [Compound 21]
[1]
  Percent Control: 100%
[2]
  Percent Control: 99%
[3]
  Percent Control: 100%
[4]
  Percent Control: 100%
[5]
  Percent Control: 90%
[6]
  Percent Control: 61%
[7]
  Percent Control: 77%
[8]
  Percent Control: 91%
[9]
  Percent Control: 79%
[10]; kinase CSF1R (Entrez CSF1R)
  Percent Control: 73%
[10]; kinase CSF1R-autoinhibited (Entrez CSF1R)
  Percent Control: 100%
[11]
  Percent Control: 89%
[12]
  Percent Control: 76%
[13]
  Percent Control: 94%
[14]
  Percent Control: 100%
[15]
  Percent Control: 82%
[16]
  Percent Control: 94%
[17]
  Percent Control: 76%
[18]
  Percent Control: 80%
[19]
  Percent Control: 79%
[20]
  Percent Control: 75%
[21]
  Percent Control: 93%
[22]
  Percent Control: 75%
[23]
  Percent Control: 55%
[24]
  Percent Control: 100%
[25]
  Percent Control: 97%
[26]
  Percent Control: 97%
